Results taken from US20250296953A1, “3,4-THIAZOLO-STEROIDS AND METHODS OF MAKING AND USING THE SAME” (Arkansas State University - Jonesboro, priority 2018, published 2025).
Like-named read-outs stand apart in the source and are kept apart here.

Key:
[1] = test system: SR; experiment: NCI 60 five dose screen
[2] = test system: HCT-15 (Colon Cancer); experiment: NCI 60 one dose screen; assay type: cell-based, human
[3] = test system: SF-539; experiment: NCI 60 one dose screen; assay type: cell-based, human; settings: one dose; CNS Cancer; SF-539
[4] = test system: 60 different human tumor cell lines; experiment: cells
[5] = test system: RPMI-8226; experiment: NCI 60 five dose screen

Compound `C[C@]12CCc3sc(Nc4ccc(OC(F)(F)F)cc4)nc3C1=CC[C@@H]1[C@@H]2CC[C@]2(C)C(=O)CC[C@@H]12` [IIa.19, (1S,2R,13R,14S,18S)-2,18-dimethyl-7-[4-(trifluoromethoxy)anilino]-6-thia-8-azapentacyclo[11.7.0.02,10.05,9.014,18]icosa-5(9),7,10-trien-17-one] has a GI50 ([1]; Homo sapiens, SR) of 2.74 µM, a CC50 ([1]; Homo sapiens, SR, read-out: LC50) greater than 100 µM and a TGI ([1]; SR (Leukemia), five dose) greater than 1.00E−4. For the same compound, the “Growth Percent” value [2] was 38.33%, the “Growth Percent” value [3] was −5.40% and the GI50 ([4]; A549) was 3.35 µM. The CC50 ([4]; A549, read-out: LC50) was 73.5 µM, the GI50 ([4]; CCRF-CEM) was 1.42 µM and the CC50 ([4]; CCRF-CEM, read-out: LC50) was greater than 100 µM. It also gave a GI50 ([4]; COLO 205) of 2.61 µM, a CC50 ([4]; COLO 205, read-out: LC50) of 58.7 µM and a GI50 ([4]; EKVX) of 2.63 µM. It also gave a CC50 ([4]; EKVX, read-out: LC50) of 95.7 µM, a GI50 ([4]; HCC 2998) of 5.32 µM and a CC50 ([4]; HCC 2998, read-out: LC50) of 51.2 µM. It also gave a GI50 ([4]; HCT-15) of 1.69 µM, a CC50 ([4]; HCT-15, read-out: LC50) of 9.97 µM and a GI50 ([4]; HCT-116) of 1.28 µM. For the same compound, the GI50 ([4]; HL-60) was 1.93 µM, the CC50 ([4]; HL-60, read-out: LC50) was greater than 100 µM and the GI50 ([4]; HOP-62) was 1.92 µM. The CC50 ([4]; HOP-62, read-out: LC50) was 9.14 µM, the GI50 ([4]; HOP-92) was 1.43 µM and the CC50 ([4]; HOP-92, read-out: LC50) was 8.26 µM. The GI50 ([4]; HT-29) was 2.39 µM, the CC50 ([4]; HT-29, read-out: LC50) was greater than 100 µM and the GI50 ([4]; K562) was 1.87 µM. The CC50 ([4]; K562, read-out: LC50) was greater than 100 µM, the GI50 ([4]; KM12) was 3.56 µM and the CC50 ([4]; KM12, read-out: LC50) was greater than 100 µM. It also gave a GI50 ([4]; LOX IMVI) of 1.74 µM, a CC50 ([4]; LOX IMVI, read-out: LC50) of 5.82 µM and a GI50 ([4]; MOLT-4) of 1.53 µM. The CC50 ([4]; MOLT-4, read-out: LC50) was greater than 100 µM, the GI50 ([4]; Malme-3M) was 3.45 µM and the CC50 ([4]; Malme-3M, read-out: LC50) was 84.5 µM. It also gave a GI50 ([4]; NCI-H23) of 3.73 µM, a CC50 ([4]; NCI-H23, read-out: LC50) of 94.6 µM and a GI50 ([4]; NCI-H226) of 6.37 µM. It also gave a CC50 ([4]; NCI-H226, read-out: LC50) greater than 100 µM, a GI50 ([4]; NCI-H322M) of 6.05 µM and a CC50 ([4]; NCI-H322M, read-out: LC50) greater than 100 µM. The GI50 ([4]; NCI-H460) was 3.25 µM, the CC50 ([4]; NCI-H460, read-out: LC50) was 41.9 µM and the GI50 ([4]; NCI-H522) was 2.14 µM. The CC50 ([4]; NCI-H522, read-out: LC50) was 9.7 µM, the GI50 ([4]; SF-268) was 3.01 µM and the CC50 ([4]; SF-268, read-out: LC50) was 57.3 µM. It also gave a GI50 ([4]; SNB-19) of 2.12 µM, a CC50 ([4]; SNB-19, read-out: LC50) of 46 µM and a GI50 ([4]; SNB-75) of 1.88 µM. For the same compound, the CC50 ([4]; SNB-75, read-out: LC50) was 29.6 µM, the GI50 ([4]; SW-620) was 2.21 µM and the CC50 ([4]; SW-620, read-out: LC50) was 18.5 µM. The GI50 ([4]; U-251) was 1.09 µM, the CC50 ([4]; U-251, read-out: LC50) was 9.78 µM and the GI50 ([5]; Homo sapiens, RPMI-8226) was 1.02 µM. It also gave a CC50 ([5]; Homo sapiens, RPMI-8226, read-out: LC50) greater than 100 µM and a TGI ([5]; RPMI-8226 (Leukemia), five dose) of 3.77E−6.
